The source of these data is patent US11179452B2, “Antigen specific multi epitope vaccines” (priority 2006, dated 2021).

For assay [1], the system named is PBLs (CD4+, CD8+, CD45RO+ T cells). Put plainly: FACS analysis of T cell phenotype during repeated stimulation with ImMucin (FIG. 2). In kind it is cell-based, human. From the text: Thawed PBLs underwent 1st stimulation with ImMucin pulsed Autologues DC at a ratio of 20:1 and cultured for 7 days in dedicated T cell Medium. T cell medium contained RPMI medium supplemented with 10% FCS, L-Glutamine, Sodium Pyruvate, MEM-EAGLE non-essential amino-acids, HEPES and Gentamycin Sulphate (Bet-Haemek Industries, IL) as well as with 50 IU/ml of recombinant IL-7 (Cytolab IL). For the second stimulation, PBL were transferred to adherent autologues ImMucin-pulsed PBMC and cultured for additional 5 days in T cell Medium. At the end of the 5 days, medium was partial replaced with fresh medium containing 1 ug/ml of ImMucin and 50 IU/ml IL-2 for a third stimulation of 48 h at 37° C. Following the last stimulation ImMucin T cell line was checked for immune activation properties.
For FACS analysis, PBLs were suspended at a final concentration of 20×10^6 and 50 µl were transfer into FACS tube (Falcon) in Blocker solution (PBS with 3% FCS and 0.1% Sodium Azide). 10 µl of fluorochrome-conjugate anti-CD4, anti-CD8, and anti-CD45RO (eBioscience) were added for 30 min on ice at 0° C. in the Dark. After the incubation cell were washed with 2 ml of the blocker solution and re suspended in 0.5 ml of Phosphate buffer saline (PBS). Samples were analyzed in a FACS-sort machine (BD) for positive florescence.
The ability of ImMucin to propagate a subpopulation of CD4^+ and CD8^+ T cells was further analyzed, and in particular the ability of ImMucin to transform naive CD4^+ and CD8^+ T cells into memory cells. This property was evaluated in a FACS analysis measuring the CD45RO^+ marker for memory T cells on CD4^+ and CD8^+ subpopulations (FIG. 2).
For orientation: In flow cytometry, cells or beads pass a laser one at a time.

A further assay deals with HT-29. In words: In vitro cytotoxic assay (CTL) of ImMucin-stimulated HLA-A2.1 positive T-cell clone. In kind it is cell-based. Particulars: HT-29 Human Colon Carcinoma, MUC1 −, ratio 1:50. As to the method: (§1) Effector cells were ImMucin specific enriched T-Cell clone. Viable lymphocytes (effector cells), were centrifugation, resuspended in RPMI-HEPES medium, and admixed at different ratios with 5×10^3 35S methionine-labeled, tumor cells. CTL assays were performed in U-shaped microtiter wells, at 37° C., 5% CO2 for 5 hours. Cultures were terminated by centrifugation at 1000 rpm for 10 min at […]. A total of 100 µl of the supernatants was mixed with scintillation fluid and measured in a □□ counter (Becton Dickinson Canberra Australia). Percentage of specific lysis was calculated as follows: % lysis=(cpm in experimental well−cpm spontaneous release)/(cpm maximal release−cpm spontaneous release)×100. Spontaneous release was determined by incubation of 100 µl-labeled target cells with 100 µl of medium. Maximal release was determined by lysis of target cells in 100 µl 10% TrytonX-100.
(§2) In order to further evaluate the class II/class I cross presentation as well as the specificity and function of the T-cell clones, their class I restricted lysis potential was analyzed. For this assay the clones were screened for Class I HLA-A2.1 expression and their potential to lyse MUC1 and HLA-A2.1 positive and negative cell-lines was evaluated. […] The results summarized in Table 10 show a MUC1 as well as HLA-A2.1-restricted lysis. A breast tumor cell such as MDA-MB-231 which expresses both MUC1 and HLA-A2.1 was lysed effectively (23%), while another breast tumor cell line MDA-MB-468 which expresses only MUC1 but not the HLA-2.1 was not lysed al all. Other control cell-lines didn't manifest any lysis (see table 10).

The subject of the next assay is K562. The assay is described as above. Particulars: K562 Human Myalo Leukeima, MUC1 +, ratio 1:50. It is filed as cell-based. As to the method:
as §1, §2

For another assay, the system named is MDA-MB-231. The description is as above. It is filed as cell-based. Particulars: MDA-MB-231 Human Brest Carcinoma, MUC1 +++, ratio 1:50. As to the method: as §1, §2
The next assay has as its system MDA-MB-486. The assay is described as above. In kind it is cell-based. Particulars: MDA-MB-486 Human Brest Carcinoma, MUC1 ++, ratio 1:50. As to the method:
as §1, §2

The subject of another assay is Molt-4. Described as above. Particulars: Molt-4 Human T cell Leukemia, MUC1 −, ratio 1:50. It is filed as cell-based. As to the method:
as §1, §2

Assay [2] has as its system blood samples derived from naive donors. Put plainly: Summary: ImMucin specific activation in blood samples of naive donors. In kind it is cell-based, human. Particulars: out of 14 different blood samples from naive donors. From the text: In summary, out of 14 different blood samples derived from naive donors, in 12 ImMucin specific activation could be observed. It is therefore clear that ImMucin is able to induce antigen specific CD4^+ as well as CD8^+ T cell activation which can lead to effective anti-tumor vaccine properties including lysis, cytokine release and memory in the majority of the population.

For assay [3], the system named is lymphocytes from naive donors. Put plainly: Proliferation assay, kinetics of lymphocyte activation as summarised in text (presentation mode not stated). In kind it is cell-based, human. The settings on record: summary of five experiments. As to the method:
Proliferation analysis was conducted in three different methods. In all three methods, plates were cultured for 3-5 days under visual control and then 0.5 […]Cu/well of 3[H] (Amersham) was added for additional culture of to 18 h at 37° C. In the last step, plates were harvested and the radioactive counts were measured in a □ counter. • 1. DC indirect presentation: In the first method, 100 µl of 2×10^6 thawed PBL were placed in U-shape Bottom 96 well plate (Nunc) with RPMI medium supplemented with 5% H AB serum, L-Glutamine, Sodium Pyruvate, MEM-EAGLE non-essential amino-acids, HEPES and Gentamycin. At the next stage 100 µl of 25×10^4 peptide-pulsed DC were added to each three wells of PBL and underwent proliferation analysis as described above. • 2. PBL direct presentation: In the 2nd method, 100 µl of 2×10^6 PBL were placed in Flat Bottom 96 well plates (Corning) and stimulated with different concentrations (0.05 ug/ml-2 ug/ml) of peptides. In the next step the cells underwent proliferation analysis as described above. • 3. PBMC direct presentation: In third method PNMC were used under similar conditions as described for the second method.
A different parameter for assessing the properties of ImMucin and the other VXL-peptide epitopes is by analyzing the time until a maximal peak of activity occurs and the optimal dose for maximal stimulation. Maximal peak of PBL activation is determined when <50% of the PBLs appear in clumps. In these experiments, the kinetic (time) in the proliferation of lymphocytes from the six naive donors stimulated at a fix dose of 0.05-1 ug/ml by ImMucin and other VXL-Peptides, was observed.

No end group written: not given here.

In the case of MTPGTQSPFFLLLLLTVLTVV [ImMucin], the “increase in percentage of memory CD45RO+ cells” value in assay [1] (ImMucin activation) is “two fold”. Besides, the “percentage of CD8+ T cells” value in assay [1] (after repeated stimulation with ImMucin, from 15% before) amounted to 36%. Further, the “percentage of CD4+ T cells” value in assay [1] (after repeated stimulation with ImMucin, from 43% before) amounted to 85%. In addition, the “Lysis % (1:50)” value came out at 0% with HT-29; 1.7% in the assay with K562; 23% with MDA-MB-231; 0% with MDA-MB-486; 1.1% with Molt-4. In addition, in assay [2], the “blood samples in which ImMucin specific activation could be observed” value worked out at 12. Moreover, the “peak of proliferation / maximum stimulation” value in assay [3] is about 96 h.
